Results from patent US9045563B2, “CXC chemokine receptor 4 (CXCR4) antagonistic polypeptide” (priority 2007, dated 2015).
Read-outs that look alike come from different tables or passages of the source. Ends that are not written are not given here.

Tests used:
[1] = test system: CCR5 tropic HIV-1 variants; test: Infection of TZM-bl cells by R5 tropic HIV-1 variants, GalScreen; format: cell-based
Procedure: (§1) 5000 TZM-bl cells were seeded in 100 μl of DMEM (10% FCS, 100 U/ml of penicillin G and 100 μg/ml of streptomycin sulfate). ALB408-423 was dissolved in PBS (10 mg/ml). One day later, 20 μl serial dilutions of ALB408-423 in PBS were added to cells and cells were subsequently infected with 0.5 ng of p24 antigen HIV-1 in a total volume of 200 μl. HIV-1 molecular clones differing in coreceptor tropism were used and generated as described (Papkalla et al., J. Virol. 76: 8455-9, 2002).
(§2) FIG. 3: Chemically synthesized ALB408-423 specifically blocks X4 tropic HIV-1 infection. TZM-bl cells containing indicated dilutions of peptide were infected with HIV-1 variants differing in their coreceptor tropism. 3 days later Gal Screen assay was used to measure infection rates. […] B) Infection rates in the presence of 500 μg/ml ALB408-423 showing that the peptide specifically blocks X4 but not R5 tropic HIV-1 infection. Data shown are mean values±standard deviation derived from triplicate infections relative to PBS containing cells (100% infection).
(§3) After 3 days, infection was detected using GalScreen assay (TROPIX) (example 1). […] In contrast, CCR5 tropic HIV-1 variants were not inhibited even in the presence of very high doses of ALB408-423 (500 μg/ml) (FIG. 3B). Due to the specific inhibition of the infection caused by X4-tropic HIV-1 variants, it is to be assumed that ALB408-423 interacts with the chemokine receptor CXCR4.
(§4) Virus stocks were first titrated on TZM-bl cells. Then TZM-bl cells containing 100 μM of peptides were infected with infectivity normalized amounts of X4, dualtropic (X4/R5) or R5 tropic HIV-1.
(§5) FIG. 10. ALB408-423 and truncated ALB derivatives specifically block X4 tropic HIV-1 infection. TZM-bl cells either containing PBS or 100 μM of indicated peptides were infected with normalized infectivities of X4, dualtropic or R5 tropic HIV-1 clones. Infection rates were measured 2 days post infection using the GalScreen assay. Shown are mean values (% of PBS treated control)±standard deviations derived from triplicate measurements.

[2] = test system: X4 tropic HIV-1 variants NL4-3, P51-Sc, P59-S/27 and P34-S; settings: TZM-bl cells
Procedure: as §1, §2, §3, §4, §5

[3] = test system: X4 tropic HIV-2ROD10; settings: read-out: IC50, X4 tropic HIV-2 infection (Example 5), TZM-bl cells
Procedure: Two days later infection rates were determined and calculated as described.
After three days infection rates were determined using the Gal Screen assay. Shown are mean values±standard deviation derived from triplicate measurements.

[4] = test system: X4 tropic HIV-1 NL4-3; settings: TZM-bl cells
Procedure: HIV inhibition test were performed by seeding 4000 P4-R5 MAGI cells (P. Charneau et al., J. Mol. Biol. 241: 651, 1994) in 100 μl of DMEM (10% FCS, 100 U/ml penicillin G, and 100 μg/ml streptomycin sulfate). P4-R5 cells are stably transfected with an LTR-lacZ cassette and upon successful infection by HIV-1 will express—galactosidase in a Tat-dependent manner, which can be detected in a chemiluminescence test. On the following day, aliquots of the fractions were added. Therefor the lyophilized fractions were resuspended in 80 μl of DMEM, and 25 μl each thereof was pipetted to P4-R5 cells, incubated at 37° C. for 1 hour and subsequently infected with HIV-1 NL4—3 (1 ng of p24 antigen). Virus stocks were obtained by transient infection of 293T cells with proviral DNA by the calcium phosphate method (CalPhos™ Mammalian Transfection Kit, Clontech). Virus stocks were harvested 48 hours post transfection, filtrated and used for infection. Three days post infection, β-galactosidase activity in infected P4-R5 cells was detected using GalScreen assay (TROPIX) as recommended by the manufacturer. Briefly, supernatant was removed, 40 μl of a 1:1 dilution of PBS/GalScreen+substrate was added, followed by incubation at room temperature for 30 min. Then 30 μl of the lysates were transferred into 96 well lumiplates. Subsequently, the lumines-cence was detected as relative light units per second in a luminometer (Berthold, ORION). From all measurements, the mean β-galactosidase background activity of non-infected control cells was subtracted. % infection values for each infection were calculated relative to no peptide containing controls (100%). The enzyme activities in measurements without ALB408-423 were set at 100%, and all other values were based thereon. The final purification (7th step) was examined under exactly the same conditions in TZM-bl cells (X. Wei et al., Antimicrob. Agents Chemother. 46: 1896, 2002).
1.6 mg of fraction 31 from the 7th step in Example 1 was dissolved in 160 μl of DMEM. Subsequently, 10 μl of serial dilutions of fraction 31 containing ALB408-423 were added to 60 μl of TZM-bl cells (60 μl) and infected with 1 ng of p24 antigen HIV-1 NL4—3 in a total volume of 100 μl. Three days later, infection rates were determined in a GalScreen assay (see Example 1).
as §1
Table 1. Antiviral activity of various ALB fragments against X4 tropic HIV-1 NL4-3 infection. TZM-bl cells containing serial dilutions of synthetic peptides were infected with HIV-1 NL4-3 and infection rates were determined and calculated as described in example 1 and 2 at two days post infection. IC50 values were determined using the GraphPad Prism software package.
Various ALB408-423 derivatives containing N or C terminal deletions or amino acid substitutions (Table 1) were chemically synthesized and lyophilized peptides were dissolved in PBS. The antiviral activity was analyzed in TZM-bl cells using X4 tropic HIV-1 NL4-3 as described (example 4).

[5] = molecular target: CXCR4 (Homo sapiens, UniProt P61073); test: Ca2+ mobilization in CXCR4 expressing HEK293 cells (indo-1); format: cell-based; set-up: expressed in transfected cells
Procedure: Ca^2+ responses were recorded.
FIG. 17. CXCR4 antagonistic activities of ALB derivatives. […] CXCR4 or CCR5 expressing HEK293 cells were treated with CXCR4 agonist CXCL12 (10 nM) or CCR5 agonist CCL5 (20 nM), respectively, in the absence (no ALB) or presence of indicated ALB derivatives (50 μM). Calcium responses were recorded as described. Data shown are mean values±standard deviation derived from duplicates relative to peak calcium responses after treatment with agonists only (100%). […] CXCR4 expressing HEK293 cells were treated with Texas Red labeled CXCL12 (CXCL12-Tr) in the presence or absence of ALB peptides. Real-time fluorescence monitoring of ligand-receptor interactions was carried out as described. Shown are bound CXCL12-Tr levels in the presence of ALB peptides relative to CXCL12-Tr only treated cells (100% bound). Values were derived from a duplicate experiment.

Sequence of CXCR4 (P61073 whole entry): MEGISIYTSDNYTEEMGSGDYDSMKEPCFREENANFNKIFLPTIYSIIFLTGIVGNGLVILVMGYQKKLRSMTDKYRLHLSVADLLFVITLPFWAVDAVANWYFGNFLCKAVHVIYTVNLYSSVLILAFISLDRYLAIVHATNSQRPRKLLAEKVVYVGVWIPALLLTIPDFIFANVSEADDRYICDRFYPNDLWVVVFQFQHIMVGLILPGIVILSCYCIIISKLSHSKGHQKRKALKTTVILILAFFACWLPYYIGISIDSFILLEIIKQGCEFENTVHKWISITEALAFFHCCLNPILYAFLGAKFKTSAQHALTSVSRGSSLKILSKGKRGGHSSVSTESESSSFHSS

LVRYTKKVPQVSTPTL [ALB408-423, LVRYTKKVPQVSTPTL]
effect on R5 tropic HIV-1 infection ([1]; 100 μM peptide): no effect
inhibition of CCR5 tropic HIV-1 variants ([1]; 500 μg/ml): not inhibited
mean IC50 over all analyzed X4-tropic HIV-1 variants ([2]; 0.5 ng p24, 3 days, synthetic peptide): 24.2 µg/mL
block of infection by X4 tropic HIV-1 clones (NL4-3, P51-Sc, P34-s) ([2]; 100 μM peptide): almost completely
IC50 [3]: 10 to 20 µM
IC50 ([4]; read-out: IC50, X4 tropic HIV-1 infection (Example 5), HIV-1 NL4-3): 10 to 20 µM
IC50 ([4]; read-out: IC50 ± SEM, X4 tropic HIV-1 NL4-3, two days post infection, synthetic peptides): 7.6 ± 1.2 µM
Ki [5]: 46.4 µM
inhibition of CXCL12-evoked calcium responses ([5]; 50 μM peptide, HEK EGFP-CXCR4 cells): 70%
agonism: calcium response induced by the peptide alone, CXCR4 ([5]; 50 μM peptide, no chemokine): does not induce any calcium response
